Test results taken from ChEMBL document CHEMBL4825761, “Utilization of Metabolite Identification and Structural Data to Guide Design of Low-Dose IDO1 Inhibitors” (ACS Med Chem Lett, 2021).

Tests used:
[1] = Plasma concentration in CD1 mouse xenografted with mouse CT26 cells overexpressing human IDO1 at 3 mg/kg, po administered as single dose measured after 8 hrs by mass spectrometry; assay type: ADME, organism-based
[2] = Plasma concentration in CD1 mouse xenografted with mouse CT26 cells overexpressing human IDO1 at 3 mg/kg, po administered as single dose measured after 4 hrs by mass spectrometry; assay type: ADME, organism-based
[3] = Plasma concentration in CD1 mouse xenografted with mouse CT26 cells overexpressing human IDO1 at 3 mg/kg, po administered as single dose measured after 16 hrs by mass spectrometry; assay type: ADME, organism-based; details: in vivo, BLD = below limit of detection
[4] = Plasma concentration in CD1 mouse xenografted with mouse CT26 cells overexpressing human IDO1 at 3 mg/kg, po administered as single dose measured after 2 hrs by mass spectrometry; assay type: ADME, organism-based
[5] = Oral bioavailability in dog; assay type: ADME, organism-based, Canis lupus familiaris; details: in vivo
[6] = Lipophilicity, logD of the compound by HPLC analysis; assay type: physicochemical
[7] = Half life in dog; assay type: ADME, Canis lupus familiaris; details: in vivo
[8] = Clearance in dog; assay type: ADME, Canis lupus familiaris; details: in vivo
[9] = Clearance in Wistar Han rat by LC-MS/MS analysis; assay type: ADME; details: in vivo
[10] = target: T1, Indoleamine 2,3-dioxygenase 1 (Homo sapiens, UniProt P14902); assay: Inhibition of IDO1 in IFNgamma/LPS stimulated human whole blood assessed as reduction in kynurenine production using tryptophan as substrate preincubated with compound for 15 mins followed by incubation with IFNgamma/LPS for overnight by LC/MS/MS analysis; assay type: tissue-based
[11] = Volume of distribution in dog; assay type: ADME, Canis lupus familiaris; details: in vivo
[12] = Half life in Wistar Han rat by LC-MS/MS analysis; assay type: ADME; details: in vivo
[13] = Volume of distribution in Wistar Han rat by LC-MS/MS analysis; assay type: ADME; details: in vivo
[14] = target: T1, Indoleamine 2,3-dioxygenase 1; assay: Inhibition of IDO1 in human HeLa cells; assay type: cell-based
Target sequence in this assay (P14902 whole entry): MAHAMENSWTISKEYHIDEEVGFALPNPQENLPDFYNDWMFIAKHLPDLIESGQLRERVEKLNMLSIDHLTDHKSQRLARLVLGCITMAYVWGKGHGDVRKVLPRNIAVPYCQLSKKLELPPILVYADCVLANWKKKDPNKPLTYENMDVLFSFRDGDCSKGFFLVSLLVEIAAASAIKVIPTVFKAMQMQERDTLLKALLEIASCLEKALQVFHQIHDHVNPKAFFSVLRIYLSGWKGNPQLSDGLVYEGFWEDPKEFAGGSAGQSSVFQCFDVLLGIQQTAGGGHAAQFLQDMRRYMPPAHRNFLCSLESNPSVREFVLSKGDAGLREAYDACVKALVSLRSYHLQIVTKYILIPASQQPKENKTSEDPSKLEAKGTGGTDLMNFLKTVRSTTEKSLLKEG

[15] = Oral bioavailability in Wistar Han rat by LC-MS/MS analysis; assay type: ADME, organism-based; details: in vivo
[16] = Unbound clearance in Wistar Han rat by LC-MS/MS analysis; assay type: ADME; details: in vivo
[17] = Unbound clearance in dog; assay type: ADME, Canis lupus familiaris; details: in vivo

Row | concentration at 8 h [1] [nM] | concentration at 4 h [2] [nM] | Cp [3] | concentration at 2 h [4] [nM] | bioavailability [5] [%] | logD [6] | half-life [7] [h] | clearance [8] [mL/min/kg] | clearance [9] [mL/min/kg] | IC50 [10] [nM] | fIC50 [10] [nM] | Vd [11] [L/kg] | half-life [12] [h] | Vd [13] [L/kg] | IC50 [14] [nM] | bioavailability [15] [%] | CL free [16] [mL/min/kg] | CL free [17] [mL/min/kg] | Structure (SMILES)
1 | 30 | 90 | Bld | 210 |  |  |  |  |  |  |  |  |  |  |  |  |  |  | Cc1nccc(N2CCCc3nc(C4(NC(=O)c5ccc(F)cc5)CC4)ccc32)n1
2 |  |  |  |  | 46 | 2.4 | 9 | 12.3 | 16.7 | 16 | 0.8 | 1.3 | 1.9 | 1.4 | 2 | 46 | 307 | 26 | Cc1nccc(N2C[C@@H]3C[C@@H]3c3nc(C4(NC(=O)c5ccc(F)cc5)CC4)ccc32)n1
